Data as given in paper PMC12064818, “A general assay platform to study protein pharmacology using ligand-dependent structural dynamics” (Nature Communications, 2025).
Like-named read-outs stand apart in the source and are kept apart here.

What was measured:
[1] = biological target: FLuc-C-NLuc (firefly luciferase) (Photinus pyralis, UniProt P08659, form not given/L550V); experiment: SDR assay, FLuc-C-NLuc; conditions: - ATP
[2] = biological target: P. pyralis FLuc (Photinus pyralis, UniProt P08659); experiment: FLuc enzymatic luminescence assay, P. pyralis FLuc; format: biochemical; conditions: FLuc enzymatic assay; for IC50: read-out: IC50 or SDR50 (mM) FLuc E
Experimental: The enzyme activity of FLuc-N-HiBiT, FLuc-C-HiBiT, and FLuc-C-NLuc was measured similar to P. pyralis firefly luciferase (FLuc) as previously described. […] Compounds and controls were added to each plate as described in Supplementary Data 8 with a Hornet pintool system (Wako Automation). Compounds were incubated with respective enzymes for 30–60 min at room temperature protected from light and covered by solid metal lid to prevent evaporation. […] Luciferin was incubated with FLuc enzyme for 5 min before FLuc activity was then measured on a ViewLux CCD imager (PerkinElmer), with exposure times up to ten seconds with medium to high gain settings. Data were normalized to average no enzyme control as 100% enzyme inhibition and average DMSO neutral control. See Supplementary Table 4 for additional details.
Assays were run in the presence (solid symbols) or absence
(open symbols) of 10 µM ATP. Corresponding SMIL E S for NC GC IDs and source data are provided in
Supplementary Data 3 and as a Source Data file. 10
Supplementary Table 4. Protocol for Firefly luciferase (FLuc) and NanoLuc (NLuc) enzymatic
Supplementary Table 4: Protocol for Firefly luciferase (FLuc) and NanoLuc (NLuc) enzym atic lum inescence assay
Firefly luciferase (FLuc) enzym atic lum inescence assay
Sequence Param eter Value Description
No enzym e control (colum n 1) and enzym e solution (1- 10 nM FLuc enzym e) in FLuc assay
1 Reagent 4 µLbuffer; white/solid bottom , m edium bind, high base plates (Greiner), dispensed with BioRaptr
com pounds transferred to respective colum ns with Pintool
2b Test Com pounds 23 nLconcentration range) in colum ns 5- 48; com pounds transferred to respective wells with
3 Incubation 30 m in Incubate enzym e + com pounds at am bient tem p for 30 m in, protected from light
4 Reagent 3 µLAdd 3 µL of D-luciferin substrate solution to each well (final concentration 10 µM); dispensed
(§1) 5 Detector ViewLux Read plate lum inescence (Exposure = 1- 10 sec; Gain = Medium -high; Speed = Slow;
Dispensing solution was diluted in 1X PBS, pH 7.4. […]

[3] = biological target: FLuc-C-HiBiT (firefly luciferase) (Photinus pyralis, UniProt P08659, form not given/L550V); experiment: SDR assay, FLuc-C-HiBiT; conditions: SDR max. response, clade S
[4] = biological target: T1, NLuc (Oplophorus gracilirostris, UniProt Q9GV45, A31E/A60N/A81I/F95D/I117V/K70R/L54V/L99Q/M102K/N193R/P142E/Q151K/Q38R/Q45L/V71I/Y165I); format: biochemical; conditions: - ATP
T1 construct: His tag (inferred from IMAC purification); made in house; host or cells: E. coli
Experimental: Compounds and controls were added to plates as described in Supplementary Data 8. Nano-Glo luciferase assay reagent (Promega) was prepared fresh according to manufacturer’s protocol, filtered and added at 3 μL per well across assay plates with a BioRaptr2 dispenser. Enzyme was incubated with Nano-Glo reagent for 10 min and NLuc luminescence was read on a ViewLux CCD imager (PerkinElmer), with 1 s exposure with medium gain and 2x binning. Data were normalized to average no enzyme control as 100% enzyme inhibition and average DMSO neutral control. See Supplementary Table 4 for additional details.
Supplementary Table 4. […]
Sequence Param eter Value Description […]
as §1
Dispensing solution was diluted in 1X PBS, pH 7.4.
NanoLuc luciferase (NLuc) enzym atic lum inescence assay […]
Nano-Glo luciferase assay reagent (Prom ega, Cat # N1120) prepared according to m anufacturer’s recom m endations,
4 com ponents stored at -30 °C until use, and reagent prepared fresh for each assay.
syringe filter prior to dispense.

[5] = biological target: T2, FLuc-C-HiBiT (Photinus pyralis, UniProt P08659); experiment: biochemical; conditions: enzyme activity, 10 uM ATP; read-out: IC50 or SDR50 (mM) / FLuc E
T2 construct: firefly luciferase with C-terminal HiBiT tag, E. coli expressed

[6] = biological target: FLuc-N-HiBiT (firefly luciferase) (Photinus pyralis, UniProt P08659, form not given/L550V); experiment: SDR assay, FLuc-N-HiBiT; conditions: substituted indoline (clade A'); for % Activity (max response, + ATP) / % Activity (max response, - ATP): SDR
Sequence of FLuc-N-HiBiT (firefly luciferase) (P08659 2-550 L550V, form open): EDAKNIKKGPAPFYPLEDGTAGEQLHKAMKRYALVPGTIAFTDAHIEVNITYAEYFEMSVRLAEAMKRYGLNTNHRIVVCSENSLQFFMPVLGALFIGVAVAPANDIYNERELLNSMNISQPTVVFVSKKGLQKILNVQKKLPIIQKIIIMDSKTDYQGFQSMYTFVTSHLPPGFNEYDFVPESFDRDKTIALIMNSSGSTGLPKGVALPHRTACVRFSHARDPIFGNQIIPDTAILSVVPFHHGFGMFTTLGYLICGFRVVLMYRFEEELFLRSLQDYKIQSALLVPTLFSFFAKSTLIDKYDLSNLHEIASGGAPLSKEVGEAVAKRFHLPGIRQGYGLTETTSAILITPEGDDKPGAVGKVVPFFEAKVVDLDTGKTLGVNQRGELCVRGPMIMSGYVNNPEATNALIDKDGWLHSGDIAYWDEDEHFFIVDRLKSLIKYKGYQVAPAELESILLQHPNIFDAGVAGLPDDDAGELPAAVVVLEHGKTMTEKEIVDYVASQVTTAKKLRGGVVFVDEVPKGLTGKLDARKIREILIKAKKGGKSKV

T1 sequence (Q9GV45 other isoform, or with tags, fused parts or gaps with the stated changes): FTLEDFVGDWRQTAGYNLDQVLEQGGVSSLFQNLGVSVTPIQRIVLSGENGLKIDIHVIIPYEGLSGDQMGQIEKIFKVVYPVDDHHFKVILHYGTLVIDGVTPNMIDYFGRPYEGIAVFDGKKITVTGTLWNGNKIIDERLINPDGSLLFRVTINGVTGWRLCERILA
Sequence of P. pyralis FLuc (P08659 whole entry): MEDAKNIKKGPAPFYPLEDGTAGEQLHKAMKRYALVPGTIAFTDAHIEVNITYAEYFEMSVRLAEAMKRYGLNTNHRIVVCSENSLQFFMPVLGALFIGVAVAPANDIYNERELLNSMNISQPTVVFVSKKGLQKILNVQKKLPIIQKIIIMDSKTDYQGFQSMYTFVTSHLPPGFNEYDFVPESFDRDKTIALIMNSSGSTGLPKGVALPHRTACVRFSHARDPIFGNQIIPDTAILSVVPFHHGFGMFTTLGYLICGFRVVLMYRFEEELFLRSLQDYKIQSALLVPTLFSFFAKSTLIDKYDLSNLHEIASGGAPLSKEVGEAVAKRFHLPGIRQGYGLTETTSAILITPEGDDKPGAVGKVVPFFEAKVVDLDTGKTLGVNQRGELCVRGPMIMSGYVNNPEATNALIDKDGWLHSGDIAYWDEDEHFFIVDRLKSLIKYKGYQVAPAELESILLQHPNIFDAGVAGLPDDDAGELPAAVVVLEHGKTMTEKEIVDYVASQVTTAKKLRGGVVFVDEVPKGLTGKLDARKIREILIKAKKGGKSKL
T2 sequence (P08659 whole entry, looked up): as the sequence (P08659 whole entry) above
Sequence of FLuc-C-NLuc (firefly luciferase) (P08659 2-550 L550V, form open): as the sequence (P08659 2-550 L550V, form open) above
Sequence of FLuc-C-HiBiT (firefly luciferase) (P08659 2-550 L550V, form open): as above

IC50 [5] [mM]	% Activity (max response, + ATP) ([6]; + ATP) [%]	% Activity (max response, - ATP) ([6]; - ATP) [%]	pSDR50 (clade A') ([6]; + ATP)	pSDR50 (clade A') ([6]; - ATP)	Compound	Efficacy (%) FLuc-C-NLuc SDR (-ATP) [1] [%]	pIC50 or pSDR50 FLuc E [2]	Efficacy (%) FLuc E ([2]; Clade S follow-up) [%]	IC50 [2] [mM]	% Activity (max response, + ATP) [3] [%]	% Activity (max response, - ATP) [3] [%]	Efficacy (%) NLuc (- ATP) [4] [%]	pIC50 or pSDR50 FLuc E ([2]; Clade S follow-up)	IC50 ([2]; Clade S follow-up) [mM]
–	–	–	–	–	O=C(NCc1ccc(F)c(Cl)c1)C1CCN(C(=O)c2ncn3c2COC(c2ccccc2)C3)CC1 (stereo not shown) [NCGC00449790-01]	0.00	5.46	-95.32	0.0035	237.76	0.00	-17.00	–	–
–	–	–	–	–	Cc1ccc(C2Cn3cnc(C(=O)N4CCC(C(=O)NCc5ccccc5C)CC4)c3CO2)cc1 (stereo not shown) [NCGC00449898-01]	0.00	–	-44.97	–	110.64	0.00	0.00	4.96	0.0111
–	–	–	–	–	O=C(NC1CCCCCCC1)C1CCN(C(=O)c2ncn3c2COC(c2ccc(F)cc2)C3)CC1 (stereo not shown) [NCGC00449810-01]	0.00	4.81	-21.88	0.0157	34.91	0.00	0.00	–	–
–	–	–	–	–	O=C(NCCCc1ccccc1)C1CCN(C(=O)c2ncn3c2COC(c2ccc(F)cc2)C3)CC1 (stereo not shown) [NCGC00449829-01]	0.00	4.96	-36.00	0.0111	29.00	0.00	-7.00	–	–
–	–	–	–	–	COc1ccc(C2Cn3cnc(C(=O)N4CCC(C(=O)NCc5cccc(C)c5)CC4)c3CO2)cc1 (stereo not shown) [NCGC00449879-01]	0.00	–	0.00	–	0.00	0.00	0.00	–	–
–	–	–	–	–	O=C(NCc1ccc(Cl)cc1)C1CCN(C(=O)c2ncn3c2COC(c2ccccc2)C3)CC1 (stereo not shown) [NCGC00449788-01]	0.00	5.41	-95.09	0.00393	324.91	0.00	0.00	–	–
–	–	–	–	–	CCc1ccc(CNC(=O)C2CCN(C(=O)c3ncn4c3COC(c3ccccc3)C4)CC2)cc1 (stereo not shown) [NCGC00449775-01]	0.00	5.01	-61.62	0.00988	294.78	0.00	0.00	–	–
–	–	–	–	–	COCCCNC(=O)C1CCN(C(=O)c2ncn3c2COC(c2ccc(OC)cc2)C3)CC1 (stereo not shown) [NCGC00449877-01]	0.00	–	0.00	–	0.00	0.00	0.00	–	–
–	–	–	–	–	Cc1ccc(C2Cn3cnc(C(=O)N4CCC(C(=O)NCc5ccccc5)CC4)c3CO2)cc1 (stereo not shown) [NCGC00449884-01]	0.00	–	-51.95	–	91.57	0.00	-9.37	4.96	0.0111
–	–	–	–	–	O=C(NCc1cccc(F)c1)C1CCN(C(=O)c2ncn3c2COC(c2ccc(F)cc2)C3)CC1 (stereo not shown) [NCGC00449837-01]	0.00	–	-43.87	–	75.17	0.00	0.00	5.01	0.00988
–	–	–	–	–	COc1ccc(C2Cn3cnc(C(=O)N4CCC(C(=O)NCC(C)C)CC4)c3CO2)cc1 (stereo not shown) [NCGC00449858-01]	0.00	–	-13.26	–	14.32	0.00	0.00	–	–
–	–	–	–	–	Cc1ccc(C2Cn3cnc(C(=O)N4CCC(C(=O)NCc5ccc(F)cc5F)CC4)c3CO2)cc1 (stereo not shown) [NCGC00449890-01]	0.00	–	-41.53	–	88.58	0.00	0.00	5.01	0.00988
–	–	–	–	–	CC(NC(=O)C1CCN(C(=O)c2ncn3c2COC(c2ccc(F)cc2)C3)CC1)c1ccc(F)cc1 (stereo not shown) [NCGC00449825-01]	0.00	–	0.00	–	0.00	0.00	0.00	–	–
–	–	–	–	–	O=C(NCc1ccccc1)C1CCN(C(=O)c2ncn3c2COC(c2ccccc2)C3)CC1 (stereo not shown) [NCGC00449773-01]	0.00	5.56	-92.80	0.00278	344.70	0.00	0.00	–	–
–	–	–	–	–	COCCNC(=O)C1CCN(C(=O)c2ncn3c2COC(c2ccc(F)cc2)C3)CC1 (stereo not shown) [NCGC00449834-01]	0.00	–	-35.83	–	67.53	0.00	0.00	4.91	0.0124
–	–	–	–	–	COc1cccc(CNC(=O)C2CCN(C(=O)c3ncn4c3COC(c3ccc(C)cc3)C4)CC2)c1 (stereo not shown) [NCGC00449886-01]	0.00	–	-31.42	–	57.89	0.00	-7.20	4.91	0.0124
–	–	–	–	–	O=C(NCc1ccccc1F)C1CCN(C(=O)c2ncn3c2COC(c2ccc(F)cc2)C3)CC1 (stereo not shown) [NCGC00449818-01]	0.00	–	-20.04	–	27.35	0.00	0.00	–	–
0.00176	125.10	31.17	5.60	3.60	COc1ccc(NC(=O)N2CCc3c(C(=O)N(C)Cc4ccco4)cccc32)cc1 [NCGC00430138-01]	–	–	–	–	–	–	–	–	–
0.00111	118.20	37.02	5.76	3.81	O=C(NCc1ccco1)c1cccc2c1CCN2C(=O)Nc1ccc(F)cc1 [NCGC00430142-01]	–	–	–	–	–	–	–	–	–
0.00248	115.10	34.94	5.48	3.57	CCCNC(=O)c1cccc2c1CCN2C(=O)Nc1cccc(C)c1 [NCGC00430116-01]	–	–	–	–	–	–	–	–	–
